Measurements taken from patent publication US20070128217A1 (priority 2003, published 2007).

Columns and labels:
[1] = test system: antibodies in sera from SARS patients (sera 1a, 1b, 2, 6, 37, 62, London, SARS-yellow, SARS-green); assay type: binding, human; set-up: Binding of serum 6 to linear peptides of protein X1 of SARS-CoV Urbani / Binding of serum 37 to linear peptides of protein X1 of SARS-CoV Urbani / Binding of serum 6 to looped/cyclic peptide (PEPSCAN-ELISA) / Binding of serum 37 to looped/cyclic peptide (PEPSCAN-ELISA) / Binding of serum 37 to looped/cyclic peptides of protein X1 of SARS-CoV Urbani / Binding of serum 6 to linear peptides of protein X2 / Binding of serum 37 to linear peptides of protein X2 / Binding of serum 37 to looped/cyclic peptides of protein X2 of SARS-CoV Urbani / Binding of serum 6 to linear peptides of protein M of SARS-CoV Urbani / Binding of serum 37 to linear peptides of protein M of SARS-CoV Urbani / Binding of serum 6 to looped/cyclic peptides of protein M of SARS-CoV Urbani / Binding of serum 37 to looped/cyclic peptides of protein M of SARS-CoV Urbani / Binding of serum 6 to linear peptides of protein X3 of SARS-CoV Urbani / Binding of serum 37 to linear peptides of protein X3 of SARS-CoV Urbani / Binding of serum 37 to looped/cyclic peptides of protein X3 of SARS-CoV Urbani / Binding of serum 6 to linear peptides of protein X4 of SARS-CoV Urbani / Binding of serum 37 to linear peptides of protein X4 of SARS-CoV Urbani / Binding of serum 37 to looped/cyclic peptides of protein X4 of SARS-CoV Urbani / Binding of serum 6 to linear peptides of protein X5 of SARS-CoV Urbani / Binding of serum 37 to linear peptides of protein X5 of SARS-CoV Urbani / Binding of serum 37 to looped/cyclic peptides of protein X5 of SARS-CoV Urbani / Binding of serum 6 to linear peptides of protein N of SARS-CoV Urbani / Binding of serum 37 to linear peptides of protein N of SARS-CoV Urbani / Binding of serum 6 to linear peptide (PEPSCAN-ELISA) / Binding of serum 1a to looped/cyclic peptides of protein N of SARS-CoV Urbani / Binding of serum 1b to looped/cyclic peptides of protein N of SARS-CoV Urbani / Binding of serum 2 to looped/cyclic peptides of protein N of SARS-CoV Urbani / Binding of serum 6 to looped/cyclic peptides of protein N of SARS-CoV Urbani / Binding of serum 37 to looped/cyclic peptides of protein N of SARS-CoV Urbani / Binding of serum 62 to looped/cyclic peptides of protein N of SARS-CoV Urbani / Binding of serum London to looped/cyclic peptides of protein N of SARS-CoV Urbani / Binding of serum SARS-green to looped/cyclic peptides of protein N of SARS-CoV Urbani: unit not given here
[2] = test system: rabbit serum obtained by immunizing a rabbit with the SARS-CoV strain Frankfurt 1; assay type: binding; set-up: Binding of a rabbit serum to linear peptides / Binding of a rabbit serum to looped peptides / Rabbit serum linear peptides / Rabbit serum looped peptides / Binding of a rabbit serum to linear peptides of protein N of SARS-CoV Urbani (Rabbit serum linear peptides) / Binding of a rabbit serum to looped/cyclic peptides of protein N of SARS-CoV Urbani (Rabbit serum looped peptides): unit not given here
[3] = test system: recombinant human anti-SARS-CoV antibody 03-018; assay type: binding; set-up: Binding of antibody 03-018 to linear peptides of the N protein of SARS-CoV Urbani / Binding of antibody 03-018 to looped/cyclic peptides of the N protein of SARS-CoV Urbani: unit not given here

TPGSSRGNSPARMAS
Binding of serum 1a to linear peptide (PEPSCAN-ELISA) [1]: 0.3 | Binding of serum 1a to looped/cyclic peptides of protein N of SARS-CoV Urbani [1]: 0.4 | Binding of serum 1b to linear peptide (PEPSCAN-ELISA) [1]: 0.2 | Binding of serum 1b to looped/cyclic peptides of protein N of SARS-CoV Urbani [1]: 0.2 | Binding of serum 2 to linear peptide (PEPSCAN-ELISA) [1]: 0.3 | Binding of serum 2 to looped/cyclic peptides of protein N of SARS-CoV Urbani [1]: 0.5 | Binding of serum 6 to linear peptide (PEPSCAN-ELISA) [1]: 0.2 | Binding of serum 6 to looped/cyclic peptides of protein N of SARS-CoV Urbani [1]: 0.4 | Binding of serum 37 to linear peptide (PEPSCAN-ELISA) [1]: 0.8 | Binding of serum 37 to looped/cyclic peptides of protein N of SARS-CoV Urbani [1]: 0.6 | Binding of serum 62 to linear peptide (PEPSCAN-ELISA) [1]: 0.7 | Binding of serum 62 to looped/cyclic peptides of protein N of SARS-CoV Urbani [1]: 0.6 | Binding of serum London to linear peptide (PEPSCAN-ELISA) [1]: 0.5 | Binding of serum London to looped/cyclic peptides of protein N of SARS-CoV Urbani [1]: 0.5 | Binding of serum SARS-green to linear peptide (PEPSCAN-ELISA) [1]: 0.6 | Binding of serum SARS-green to looped/cyclic peptides of protein N of SARS-CoV Urbani [1]: 0.4 | Binding of serum SARS-yellow to linear peptide (PEPSCAN-ELISA) [1]: 0.8 | Binding of serum SARS-yellow to looped/cyclic peptides of protein N of SARS-CoV Urbani [1]: 0.5 | Recognition of the peptide by the rabbit serum [2]: recognized | Binding of antibody 03-018 to linear peptides of the N protein of SARS-CoV Urbani [3]: 0.1 | Binding of antibody 03-018 to looped/cyclic peptides of the N protein of SARS-CoV Urbani [3]: 0.3

GSSRGNSPARMASGG
Binding of serum 1a to linear peptide (PEPSCAN-ELISA) [1]: 0.4 | Binding of serum 1a to looped/cyclic peptides of protein N of SARS-CoV Urbani [1]: 0.4 | Binding of serum 1b to linear peptide (PEPSCAN-ELISA) [1]: 0.2 | Binding of serum 1b to looped/cyclic peptides of protein N of SARS-CoV Urbani [1]: 0.3 | Binding of serum 2 to linear peptide (PEPSCAN-ELISA) [1]: 0.2 | Binding of serum 2 to looped/cyclic peptides of protein N of SARS-CoV Urbani [1]: 0.7 | Binding of serum 6 to linear peptide (PEPSCAN-ELISA) [1]: 0.2 | Binding of serum 6 to looped/cyclic peptides of protein N of SARS-CoV Urbani [1]: 0.4 | Binding of serum 37 to linear peptide (PEPSCAN-ELISA) [1]: 0.5 | Binding of serum 37 to looped/cyclic peptides of protein N of SARS-CoV Urbani [1]: 0.6 | Binding of serum 62 to linear peptide (PEPSCAN-ELISA) [1]: 0.7 | Binding of serum 62 to looped/cyclic peptides of protein N of SARS-CoV Urbani [1]: 0.6 | Binding of serum London to linear peptide (PEPSCAN-ELISA) [1]: 0.5 | Binding of serum London to looped/cyclic peptides of protein N of SARS-CoV Urbani [1]: 0.9 | Binding of serum SARS-green to linear peptide (PEPSCAN-ELISA) [1]: 0.8 | Binding of serum SARS-green to looped/cyclic peptides of protein N of SARS-CoV Urbani [1]: 0.7 | Binding of serum SARS-yellow to linear peptide (PEPSCAN-ELISA) [1]: 0.7 | Binding of serum SARS-yellow to looped/cyclic peptides of protein N of SARS-CoV Urbani [1]: 0.5 | Recognition of the peptide by the rabbit serum [2]: recognized | Binding of antibody 03-018 to linear peptides of the N protein of SARS-CoV Urbani [3]: 0.1 | Binding of antibody 03-018 to looped/cyclic peptides of the N protein of SARS-CoV Urbani [3]: 0.2

NSTPGSSRGNSPARM
Binding of serum 1a to linear peptide (PEPSCAN-ELISA) [1]: 0.7 | Binding of serum 1a to looped/cyclic peptides of protein N of SARS-CoV Urbani [1]: 0.8 | Binding of serum 1b to linear peptide (PEPSCAN-ELISA) [1]: 0.5 | Binding of serum 1b to looped/cyclic peptides of protein N of SARS-CoV Urbani [1]: 0.7 | Binding of serum 2 to linear peptide (PEPSCAN-ELISA) [1]: 0.4 | Binding of serum 2 to looped/cyclic peptides of protein N of SARS-CoV Urbani [1]: 0.6 | Binding of serum 6 to linear peptide (PEPSCAN-ELISA) [1]: 0.6 | Binding of serum 6 to looped/cyclic peptides of protein N of SARS-CoV Urbani [1]: 0.4 | Binding of serum 37 to linear peptide (PEPSCAN-ELISA) [1]: 1.2 | Binding of serum 37 to looped/cyclic peptides of protein N of SARS-CoV Urbani [1]: 0.6 | Binding of serum 62 to linear peptide (PEPSCAN-ELISA) [1]: 1.2 | Binding of serum 62 to looped/cyclic peptides of protein N of SARS-CoV Urbani [1]: 0.6 | Binding of serum London to linear peptide (PEPSCAN-ELISA) [1]: 1.6 | Binding of serum London to looped/cyclic peptides of protein N of SARS-CoV Urbani [1]: 0.5 | Binding of serum SARS-green to linear peptide (PEPSCAN-ELISA) [1]: 1.8 | Binding of serum SARS-green to looped/cyclic peptides of protein N of SARS-CoV Urbani [1]: 0.4 | Binding of serum SARS-yellow to linear peptide (PEPSCAN-ELISA) [1]: 1.5 | Binding of serum SARS-yellow to looped/cyclic peptides of protein N of SARS-CoV Urbani [1]: 0.4 | Recognition of the peptide by the rabbit serum [2]: recognized | Binding of antibody 03-018 to linear peptides of the N protein of SARS-CoV Urbani [3]: 0.2 | Binding of antibody 03-018 to looped/cyclic peptides of the N protein of SARS-CoV Urbani [3]: 0.3

PGSSRGNSPARMASG
Binding of serum 1a to linear peptide (PEPSCAN-ELISA) [1]: 0.3 | Binding of serum 1a to looped/cyclic peptides of protein N of SARS-CoV Urbani [1]: 0.4 | Binding of serum 1b to linear peptide (PEPSCAN-ELISA) [1]: 0.2 | Binding of serum 1b to looped/cyclic peptides of protein N of SARS-CoV Urbani [1]: 0.2 | Binding of serum 2 to linear peptide (PEPSCAN-ELISA) [1]: 0.3 | Binding of serum 2 to looped/cyclic peptides of protein N of SARS-CoV Urbani [1]: 0.5 | Binding of serum 6 to linear peptide (PEPSCAN-ELISA) [1]: 0.2 | Binding of serum 6 to looped/cyclic peptides of protein N of SARS-CoV Urbani [1]: 0.4 | Binding of serum 37 to linear peptide (PEPSCAN-ELISA) [1]: 0.6 | Binding of serum 37 to looped/cyclic peptides of protein N of SARS-CoV Urbani [1]: 0.6 | Binding of serum 62 to linear peptide (PEPSCAN-ELISA) [1]: 0.6 | Binding of serum 62 to looped/cyclic peptides of protein N of SARS-CoV Urbani [1]: 0.6 | Binding of serum London to linear peptide (PEPSCAN-ELISA) [1]: 0.5 | Binding of serum London to looped/cyclic peptides of protein N of SARS-CoV Urbani [1]: 0.5 | Binding of serum SARS-green to linear peptide (PEPSCAN-ELISA) [1]: 0.5 | Binding of serum SARS-green to looped/cyclic peptides of protein N of SARS-CoV Urbani [1]: 0.5 | Binding of serum SARS-yellow to linear peptide (PEPSCAN-ELISA) [1]: 0.7 | Binding of serum SARS-yellow to looped/cyclic peptides of protein N of SARS-CoV Urbani [1]: 0.4 | Recognition of the peptide by the rabbit serum [2]: recognized | Binding of antibody 03-018 to linear peptides of the N protein of SARS-CoV Urbani [3]: 0.1 | Binding of antibody 03-018 to looped/cyclic peptides of the N protein of SARS-CoV Urbani [3]: 0.3

DKDPQFKDNVILLNK
Binding of a rabbit serum to linear peptides of protein N of SARS-CoV Urbani (Rabbit serum linear peptides) [2]: 0.1 | Binding of a rabbit serum to looped/cyclic peptides of protein N of SARS-CoV Urbani (Rabbit serum looped peptides) [2]: 0.5 | Binding of antibody 03-018 to linear peptides of the N protein of SARS-CoV Urbani [3]: 0.1 | Binding of antibody 03-018 to looped/cyclic peptides of the N protein of SARS-CoV Urbani [3]: 0.4
